Reference: patent publication US10105357B2, “Indication of antibiotic drugs for preparation of cancer inhibition pharmaceutical composition” (LAUNX BIOMEDICAL CO., LTD., priority 2014, dated 2018)
Structures can show the parent of a compound that is named as a salt. Where two headings read alike, the source gives them in different places.

How the values were obtained:
Type in all cases: cell-based, human
[1] = tested on: TOV-21G; test: Cell viability analysis, ovarian cancer TOV-21G; details: Homo sapiens, TOV21G, 72 h, read-out: The results of antibiotic drug inhibiting cancer cell lines (cell viability analysis), TOV-21G
[2] = tested on: PC3 (p53−) (Prostate Adenocarcinoma); test: Cell viability analysis, prostate cancer PC3; details: Homo sapiens
[3] = tested on: HI650 (Lung Adenocarcinoma); test: Cell viability analysis, lung cancer HI650; details: Homo sapiens
[4] = tested on: cancer cell lines; test: Cell viability analysis (WST-1) on cancer cell lines; details: drug 10 μM, 72 hours, WST-1; Table 3
[5] = tested on: U-2OS; test: Cell viability analysis, osteosarcoma U-2OS; details: Homo sapiens, U2OS, 72 h, read-out: The results of antibiotic drug inhibiting cancer cell lines (cell viability analysis), U2OS
[6] = tested on: Hep3B (hepatocellular carcinoma); test: Cell viability analysis, hepatic cancer Hep3B; details: Homo sapiens, Hep3B, 72 h, read-out: The results of antibiotic drug inhibiting cancer cell lines (cell viability analysis), Hep3B
[7] = tested on: MKN-45 (Gastric Adenocarcinoma); test: Cell viability analysis, gastric cancer MKN-45; details: Homo sapiens
[8] = tested on: HepG2 (Hepatocellular Carcinoma); test: Cell viability analysis, hepatic cancer HepG2; details: Homo sapiens
[9] = tested on: NIH: OVCAR-3; test: Cell viability analysis, ovarian cancer NIH: OVCAR-3; details: Homo sapiens, OVCAR-3, 72 h, read-out: The results of antibiotic drug inhibiting cancer cell lines (cell viability analysis), NIH-OVCAR-3
[10] = tested on: 786-O (Renal adenocarcinoma); test: Cell viability analysis, renal cancer 786-O; details: Homo sapiens, 786-0, 72 h, read-out: The results of antibiotic drug inhibiting cancer cell lines (cell viability analysis), 786-O
[11] = tested on: AsPC-1; test: Cell viability analysis, pancreatic cancer AsPC-1; details: Homo sapiens, ASPC1, 72 h, read-out: The results of antibiotic drug inhibiting cancer cell lines (cell viability analysis), AsPC-1
[12] = tested on: C-33A (Cervical carcinoma); test: Cell viability analysis, cervical cancer C-33A; details: Homo sapiens, C-33-A, 72 h, read-out: The results of antibiotic drug inhibiting cancer cell lines (cell viability analysis), C-33A
[13] = tested on: HL-60 (Acute Promyelocytic Leukemia); test: Cell viability analysis, leukemia HL-60; details: Homo sapiens
[14] = tested on: TSGH-8301 (Urinary Bladder Carcinoma); test: Cell viability analysis, bladder cancer TSGH-8301; details: Homo sapiens
[15] = tested on: A549 (Lung Adenocarcinoma); test: Cell viability analysis, lung cancer A549; details: Homo sapiens
[16] = tested on: MDA-MB-231 (Mammary Gland, Adenocarcinoma); test: Cell viability analysis, breast cancer MDA-MB-231; details: Homo sapiens, MDA-MB-231, 72 h, read-out: The results of antibiotic drug inhibiting cancer cell lines (cell viability analysis), MDA-MB231
[17] = tested on: HeLa (Cervix Adenocarcinoma); test: Cell viability analysis, cervical cancer HeLa; details: Homo sapiens, HeLa
[18] = tested on: T24; test: Cell viability analysis, bladder cancer T24; details: Homo sapiens, T-24, 72 h, read-out: The results of antibiotic drug inhibiting cancer cell lines (cell viability analysis), T24
[19] = tested on: MCF7 (Mammary Gland, Adenocarcinoma); test: Cell viability analysis, breast cancer MCF7; details: Homo sapiens
[20] = tested on: SAS (Tongue squamous cell carcinoma); test: Cell viability analysis, tongue cancer SAS; details: Homo sapiens, 72 h, read-out: The results of antibiotic drug inhibiting cancer cell lines (cell viability analysis), SAS
[21] = tested on: A375 (Amelanotic Melanoma); test: Cell viability analysis, skin cancer A375; details: Homo sapiens
[22] = tested on: BxPC-3; test: Cell viability analysis, pancreatic cancer BxPC-3; details: Homo sapiens, BXPC-3, 72 h, read-out: The results of antibiotic drug inhibiting cancer cell lines (cell viability analysis), BxPC-3
[23] = tested on: AGS (Gastric Adenocarcinoma); test: Cell viability analysis, gastric cancer AGS; details: Homo sapiens
[24] = tested on: BCC (basal cell carcinoma); test: Cell viability analysis, skin cancer BCC; details: Homo sapiens, 72 h, read-out: The results of antibiotic drug inhibiting cancer cell lines (cell viability analysis), BCC
[25] = tested on: LoVo (Colorectal Adenocarcinoma); test: Cell viability analysis, colon cancer LoVo; details: Homo sapiens, LoVo

With CO[C@H]1/C=C/O[C@@]2(C)Oc3c(C)c(O)c4c(O)c(c5c(nc6cc(C)ccn65)c4c3C2=O)NC(=O)/C(C)=C\C=C\[C@H](C)[C@H](O)[C@@H](C)[C@@H](O)[C@@H](C)[C@H](OC(C)=O)[C@@H]1C [Rifaximin (Xifaxan), Rifaximin] the viability at 10 µM [1] was 88%, the viability at 10 µM ([2]; 72 h, read-out: The results of antibiotic drug inhibiting cancer cell lines (cell viability analysis), PC-3, PC-3, repeated experiment) was 95.3% and the viability at 10 µM ([2]; 72 h, read-out: cell viability (survival rate), PC3, drug 10 μM, 72 hours, WST-1, OD450 nm) was 67.1%. The viability at 10 µM ([3]; NCI-H1650, 72 h, read-out: The results of antibiotic drug inhibiting cancer cell lines (cell viability analysis), H1650, H1650, repeated experiment) was 69.5%, the viability at 10 µM ([3]; NCI-H1650, 72 h, read-out: cell viability (survival rate), H1650, drug 10 μM, 72 hours, WST-1, OD450 nm) was 82.4% and the “inhibition effect on different cancer cell lines” value [4] was “significant inhibition effect”. For the same compound, the viability at 10 µM [5] was 72.9%, the viability at 10 µM [6] was 110% and the viability at 10 µM ([7]; MKN-45, 72 h, read-out: The results of antibiotic drug inhibiting cancer cell lines (cell viability analysis), MKN-45, MKN-45, repeated experiment) was 93.5%. It also gave a viability at 10 µM ([7]; MKN-45, 72 h, read-out: cell viability (survival rate), MKN-45, drug 10 μM, 72 hours, WST-1, OD450 nm) of 52.7%, a viability at 10 µM ([8]; HepG2, 72 h, read-out: The results of antibiotic drug inhibiting cancer cell lines (cell viability analysis), HepG2, HepG2, repeated experiment) of 115% and a viability at 10 µM ([8]; HepG2, 72 h, read-out: cell viability (survival rate), HepG2, drug 10 μM, 72 hours, WST-1, OD450 nm) of 102%. It also gave a viability at 10 µM [9] of 100%, a viability at 10 µM [10] of 87.6% and a viability at 10 µM [11] of 71.2%. For the same compound, the viability at 10 µM [12] was 107%, the viability at 10 µM ([13]; HL-60, 72 h, read-out: cell viability (survival rate), HL-60, drug 10 μM, 72 hours, WST-1, OD450 nm) was 100% and the viability at 10 µM ([14]; 72 h, read-out: The results of antibiotic drug inhibiting cancer cell lines (cell viability analysis), TSGH-8301, TSGH-8301, repeated experiment) was 114%. It also gave a viability at 10 µM ([14]; 72 h, read-out: cell viability (survival rate), TSGH, drug 10 μM, 72 hours, WST-1, OD450 nm) of 61.3%, a viability at 10 µM ([15]; A549, 72 h, read-out: The results of antibiotic drug inhibiting cancer cell lines (cell viability analysis), A549, A549, repeated experiment) of 108% and a viability at 10 µM ([15]; A549, 72 h, read-out: cell viability (survival rate), A549, drug 10 μM, 72 hours, WST-1, OD450 nm) of 35.1%. For the same compound, the viability at 10 µM [16] was 98.7%, the viability at 10 µM ([17]; 72 h, read-out: The results of antibiotic drug inhibiting cancer cell lines (cell viability analysis), HeLa, repeated experiment) was 106% and the viability at 10 µM ([17]; 72 h, read-out: cell viability (survival rate), HeLa, drug 10 μM, 72 hours, WST-1, OD450 nm) was 54%. For the same compound, the viability at 10 µM [18] was 96.8%, the viability at 10 µM ([19]; MCF7, 72 h, read-out: The results of antibiotic drug inhibiting cancer cell lines (cell viability analysis), MCF-7, MCF-7, repeated experiment) was 89.9% and the viability at 10 µM ([19]; MCF7, 72 h, read-out: cell viability (survival rate), MCF7, drug 10 μM, 72 hours, WST-1, OD450 nm) was 40.1%. For the same compound, the viability at 10 µM [20] was 69.8%, the viability at 10 µM ([21]; A-375, 72 h, read-out: The results of antibiotic drug inhibiting cancer cell lines (cell viability analysis), A375, A375, repeated experiment) was 98.2% and the viability at 10 µM ([21]; A-375, 72 h, read-out: cell viability (survival rate), A375, drug 10 μM, 72 hours, WST-1, OD450 nm) was 59.5%. For the same compound, the viability at 10 µM [22] was 89%, the viability at 10 µM ([23]; 72 h, read-out: The results of antibiotic drug inhibiting cancer cell lines (cell viability analysis), AGS, repeated experiment) was 98.1% and the viability at 10 µM ([23]; 72 h, read-out: cell viability (survival rate), AGS, drug 10 μM, 72 hours, WST-1, OD450 nm) was 93.2%. It also gave a viability at 10 µM [24] of 81.8%.

For Cc1cc(C(C)(C)C)cc(C)c1CC1=NCCN1 [Xylometazoline HCl], the viability at 10 µM [1] was 92.3%, the viability at 10 µM ([2]; 72 h, PC-3, repeated experiment, read-out: The results of antibiotic drug inhibiting cancer cell lines (cell viability analysis), PC-3) was 116% and the viability at 10 µM ([2]; drug 10 μM, 72 hours, WST-1, OD450 nm, read-out: cell viability (survival rate), PC3) was 54.8%. For the same compound, the viability at 10 µM ([3]; NCI-H1650, 72 h, H1650, repeated experiment, read-out: The results of antibiotic drug inhibiting cancer cell lines (cell viability analysis), H1650) was 95.3%, the viability at 10 µM ([3]; NCI-H1650, drug 10 μM, 72 hours, WST-1, OD450 nm, read-out: cell viability (survival rate), H1650) was 33.4% and the “inhibition effect on different cancer cell lines” value [4] was “significant inhibition effect”. For the same compound, the viability at 10 µM [5] was 60.2%, the viability at 10 µM [6] was 114% and the viability at 10 µM ([7]; 72 h, MKN-45, repeated experiment, read-out: The results of antibiotic drug inhibiting cancer cell lines (cell viability analysis), MKN-45) was 121%. The viability at 10 µM ([7]; MKN-45, drug 10 μM, 72 hours, WST-1, OD450 nm, read-out: cell viability (survival rate), MKN-45) was 65.8%, the viability at 10 µM ([8]; 72 h, HepG2, repeated experiment, read-out: The results of antibiotic drug inhibiting cancer cell lines (cell viability analysis), HepG2) was 106% and the viability at 10 µM ([8]; HepG2, drug 10 μM, 72 hours, WST-1, OD450 nm, read-out: cell viability (survival rate), HepG2) was 83%. The viability at 10 µM [9] was 102%, the viability at 10 µM [10] was 100% and the viability at 10 µM [11] was 82.8%. It also gave a viability at 10 µM [12] of 104%, a viability at 10 µM ([13]; HL-60, drug 10 μM, 72 hours, WST-1, OD450 nm, read-out: cell viability (survival rate), HL-60) of 84.9% and a viability at 10 µM ([14]; 72 h, TSGH-8301, repeated experiment, read-out: The results of antibiotic drug inhibiting cancer cell lines (cell viability analysis), TSGH-8301) of 122%. It also gave a viability at 10 µM ([14]; drug 10 μM, 72 hours, WST-1, OD450 nm, read-out: cell viability (survival rate), TSGH) of 42.6%, a viability at 10 µM ([25]; 72 h, repeated experiment, read-out: The results of antibiotic drug inhibiting cancer cell lines (cell viability analysis), LoVo) of 88.7% and a viability at 10 µM ([25]; drug 10 μM, 72 hours, WST-1, OD450 nm, read-out: cell viability (survival rate), LoVo) of 47.1%. It also gave a viability at 10 µM ([15]; 72 h, A549, repeated experiment, read-out: The results of antibiotic drug inhibiting cancer cell lines (cell viability analysis), A549) of 83%, a viability at 10 µM ([15]; A549, drug 10 μM, 72 hours, WST-1, OD450 nm, read-out: cell viability (survival rate), A549) of 74.7% and a viability at 10 µM [16] of 96.3%. It also gave a viability at 10 µM ([17]; 72 h, repeated experiment, read-out: The results of antibiotic drug inhibiting cancer cell lines (cell viability analysis), HeLa) of 117%, a viability at 10 µM ([17]; drug 10 μM, 72 hours, WST-1, OD450 nm, read-out: cell viability (survival rate), HeLa) of 107% and a viability at 10 µM [18] of 92.5%. It also gave a viability at 10 µM ([19]; MCF7, 72 h, MCF-7, repeated experiment, read-out: The results of antibiotic drug inhibiting cancer cell lines (cell viability analysis), MCF-7) of 90.1%, a viability at 10 µM ([19]; MCF7, drug 10 μM, 72 hours, WST-1, OD450 nm, read-out: cell viability (survival rate), MCF7) of 94.4% and a viability at 10 µM [20] of 76.4%. The viability at 10 µM ([21]; A-375, 72 h, A375, repeated experiment, read-out: The results of antibiotic drug inhibiting cancer cell lines (cell viability analysis), A375) was 102%, the viability at 10 µM ([21]; A-375, drug 10 μM, 72 hours, WST-1, OD450 nm, read-out: cell viability (survival rate), A375) was 65.1% and the viability at 10 µM [22] was 72.9%. It also gave a viability at 10 µM ([23]; 72 h, AGS, repeated experiment, read-out: The results of antibiotic drug inhibiting cancer cell lines (cell viability analysis), AGS) of 125%, a viability at 10 µM ([23]; drug 10 μM, 72 hours, WST-1, OD450 nm, read-out: cell viability (survival rate), AGS) of 52.2% and a viability at 10 µM [24] of 116%.
